For 2 compounds, EC50 results are on record in article PMC4159282, “Gi Proteins Regulate Adenylyl Cyclase Activity Independent of Receptor Activation” (PLoS ONE, 2014).

The target in this experiment is T1, β2-adrenoceptor (β2AR) (Rattus norvegicus, UniProt P10608).
T1 construct: gene Adrb2
T1 sequence (P10608 whole entry): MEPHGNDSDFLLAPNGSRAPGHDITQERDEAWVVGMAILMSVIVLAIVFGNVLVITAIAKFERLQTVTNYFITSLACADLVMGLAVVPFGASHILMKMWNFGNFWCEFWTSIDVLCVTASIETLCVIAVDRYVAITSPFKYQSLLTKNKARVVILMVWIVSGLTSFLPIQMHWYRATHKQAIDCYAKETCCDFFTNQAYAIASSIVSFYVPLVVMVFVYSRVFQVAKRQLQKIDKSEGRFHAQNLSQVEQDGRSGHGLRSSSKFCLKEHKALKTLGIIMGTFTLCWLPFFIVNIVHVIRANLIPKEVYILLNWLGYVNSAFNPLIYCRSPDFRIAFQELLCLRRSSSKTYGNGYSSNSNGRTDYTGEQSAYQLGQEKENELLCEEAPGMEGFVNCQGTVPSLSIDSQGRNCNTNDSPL

Turning to `C[C@@H](Cc1ccc(O)cc1)NC[C@H](O)c1cc(O)cc(O)c1` (racemic) [RS, (R,S)-fenoterol], the midpoint of the response, the EC50, lay at 3.5 ± 0.5 µM.
`C[C@H](Cc1ccc(O)cc1)NC[C@H](O)c1cc(O)cc(O)c1` [RR, (R,R)-fenoterol]: the midpoint of the response, the EC50, lay at 0.14 ± 0.048 µM. Against the preceding compound, the EC50 is about 25-fold lower.
